Laboratory results from patent US20090156518A1, “STABLE PHARMACEUTICAL COMPOSITION COMPRISING BETA-LACTAM ANTIBIOTIC AND BUFFER” (priority 2006, published 2009).

Test: amounts of β-lactam antibiotic, β-lactamase inhibitor (C18 reverse-phase LC, UV-VIS) and aminoglycoside (HPLC-ELSD) in solution over time
Format: physicochemical
Method: The amounts of β-lactam antibiotics and β-lactamase inhibitor were determined using C18 reverse-phase LC and UV-VIS detector (Tianjin Hemay BioTech Co., Ltd., analysis method No. HM-K-03). The content of aminoglycoside antibiotics was measured using reverse-phase HPLC and evaporation-light-scattering detector (ELSD detector) (Tianjin Hemay BioTech Co., Ltd., analysis method No. HM-K-08). The amount of antibiotic component at each time point was expressed as a percentage with respect to the amount at the initial time (herein defined as 100%). The relative amount of each antibiotic component in the composition at each time point was expressed as peak area ratio with respect to the corresponding peak area of an external standard.

amount of component as percentage with respect to the amount at the initial time (Example 4: cefoperazone sodium 4 g, sulbactam sodium 0.5 g, gentamicin 80 mg, citrate pH 6.75, 200 mL water, room temperature, Time 0 h): 101.4%
amount of component as percentage with respect to the amount at the initial time (Example 4: cefoperazone sodium 4 g, sulbactam sodium 0.5 g, gentamicin 80 mg, citrate pH 6.75, 200 mL water, room temperature, Time 1 h): 98.66%
amount of component as percentage with respect to the amount at the initial time (Example 4: cefoperazone sodium 4 g, sulbactam sodium 0.5 g, gentamicin 80 mg, citrate pH 6.75, 200 mL water, room temperature, Time 2 h): 98.79%
amount of component as percentage with respect to the amount at the initial time (Example 4: cefoperazone sodium 4 g, sulbactam sodium 0.5 g, gentamicin 80 mg, citrate pH 6.75, 200 mL water, room temperature, Time 4 h): 101.5%
amount of component as percentage with respect to the amount at the initial time (Example 4: cefoperazone sodium 4 g, sulbactam sodium 0.5 g, gentamicin 80 mg, citrate pH 6.75, 200 mL water, room temperature, Time 6 h): 107.4%
amount of component as percentage with respect to the amount at the initial time (Example 5: freeze-dried cefoperazone sodium 4 g, sulbactam sodium 0.5 g, citrate pH 6.75, + amikacin sulfate 500 mg, 7 days 0° C., dissolved in 100 mL water, Time 0 h): 101.4%
amount of component as percentage with respect to the amount at the initial time (Example 5: freeze-dried cefoperazone sodium 4 g, sulbactam sodium 0.5 g, citrate pH 6.75, + amikacin sulfate 500 mg, 7 days 0° C., dissolved in 100 mL water, Time 1 h): 98.66%
amount of component as percentage with respect to the amount at the initial time (Example 5: freeze-dried cefoperazone sodium 4 g, sulbactam sodium 0.5 g, citrate pH 6.75, + amikacin sulfate 500 mg, 7 days 0° C., dissolved in 100 mL water, Time 2 h): 98.79%
amount of component as percentage with respect to the amount at the initial time (Example 5: freeze-dried cefoperazone sodium 4 g, sulbactam sodium 0.5 g, citrate pH 6.75, + amikacin sulfate 500 mg, 7 days 0° C., dissolved in 100 mL water, Time 4 h): 101.5%
amount of component as percentage with respect to the amount at the initial time (Example 5: freeze-dried cefoperazone sodium 4 g, sulbactam sodium 0.5 g, citrate pH 6.75, + amikacin sulfate 500 mg, 7 days 0° C., dissolved in 100 mL water, Time 6 h): 107.4%
amount of component as percentage with respect to the amount at the initial time (Example 6: freeze-dried cefoperazone sodium 4 g, sulbactam sodium 1 g, citrate pH 6.75, + etimicin sulfate 200 mg, 7 days 0° C., dissolved in 100 mL water, Time 0 h): 110.4%
amount of component as percentage with respect to the amount at the initial time (Example 6: freeze-dried cefoperazone sodium 4 g, sulbactam sodium 1 g, citrate pH 6.75, + etimicin sulfate 200 mg, 7 days 0° C., dissolved in 100 mL water, Time 1 h): 99.48%
amount of component as percentage with respect to the amount at the initial time (Example 6: freeze-dried cefoperazone sodium 4 g, sulbactam sodium 1 g, citrate pH 6.75, + etimicin sulfate 200 mg, 7 days 0° C., dissolved in 100 mL water, Time 2 h): 101.3%
amount of component as percentage with respect to the amount at the initial time (Example 6: freeze-dried cefoperazone sodium 4 g, sulbactam sodium 1 g, citrate pH 6.75, + etimicin sulfate 200 mg, 7 days 0° C., dissolved in 100 mL water, Time 4 h): 98.66%
amount of component as percentage with respect to the amount at the initial time (Example 6: freeze-dried cefoperazone sodium 4 g, sulbactam sodium 1 g, citrate pH 6.75, + etimicin sulfate 200 mg, 7 days 0° C., dissolved in 100 mL water, Time 6 h): 98.02%
amount of component as percentage with respect to the amount at the initial time (Example 6: freeze-dried cefoperazone sodium 4 g, sulbactam sodium 1 g, citrate pH 6.75, + etimicin sulfate 200 mg, 7 days 0° C., dissolved in 100 mL water, Time 8 h): 99.30%
amount of component as percentage with respect to the amount at the initial time (Example 14: freeze-dried cefoperazone sodium 4 g, sulbactam sodium 2 g, citrate pH 6.75, 7 days 0° C., in 100 mL water, 10 mL + gentamicin sulfate 16 mg, room temperature, Time 0 h): 98.42%
amount of component as percentage with respect to the amount at the initial time (Example 14: freeze-dried cefoperazone sodium 4 g, sulbactam sodium 2 g, citrate pH 6.75, 7 days 0° C., in 100 mL water, 10 mL + gentamicin sulfate 16 mg, room temperature, Time 1 h): 97.39%
amount of component as percentage with respect to the amount at the initial time (Example 14: freeze-dried cefoperazone sodium 4 g, sulbactam sodium 2 g, citrate pH 6.75, 7 days 0° C., in 100 mL water, 10 mL + gentamicin sulfate 16 mg, room temperature, Time 2 h): 97.46%
amount of component as percentage with respect to the amount at the initial time (Example 14: freeze-dried cefoperazone sodium 4 g, sulbactam sodium 2 g, citrate pH 6.75, 7 days 0° C., in 100 mL water, 10 mL + gentamicin sulfate 16 mg, room temperature, Time 4 h): 94.70%
amount of component as percentage with respect to the amount at the initial time (Example 14: freeze-dried cefoperazone sodium 4 g, sulbactam sodium 2 g, citrate pH 6.75, 7 days 0° C., in 100 mL water, 10 mL + gentamicin sulfate 16 mg, room temperature, Time 6 h): 93.02%
amount of component as percentage with respect to the amount at the initial time (Example 15: freeze-dried cefoperazone sodium 4 g, sulbactam sodium 4 g, citrate pH 6.75, 7 days 0° C., in 100 mL water, 10 mL + gentamicin sulfate 16 mg, room temperature, Time 0 h): 101.7%
amount of component as percentage with respect to the amount at the initial time (Example 15: freeze-dried cefoperazone sodium 4 g, sulbactam sodium 4 g, citrate pH 6.75, 7 days 0° C., in 100 mL water, 10 mL + gentamicin sulfate 16 mg, room temperature, Time 1 h): 96.06%
amount of component as percentage with respect to the amount at the initial time (Example 15: freeze-dried cefoperazone sodium 4 g, sulbactam sodium 4 g, citrate pH 6.75, 7 days 0° C., in 100 mL water, 10 mL + gentamicin sulfate 16 mg, room temperature, Time 2 h): 95.72%
amount of component as percentage with respect to the amount at the initial time (Example 15: freeze-dried cefoperazone sodium 4 g, sulbactam sodium 4 g, citrate pH 6.75, 7 days 0° C., in 100 mL water, 10 mL + gentamicin sulfate 16 mg, room temperature, Time 4 h): 97.32%
amount of component as percentage with respect to the amount at the initial time (Example 15: freeze-dried cefoperazone sodium 4 g, sulbactam sodium 4 g, citrate pH 6.75, 7 days 0° C., in 100 mL water, 10 mL + gentamicin sulfate 16 mg, room temperature, Time 6 h): 69.95%
amount of component as percentage with respect to the amount at the initial time (Example 16: 10 mL of the final solution (cefoperazone sodium, tazobactam sodium, etimicin sulfate, citrate) + gentamicin sulfate 16 mg, Time 0 h): 92.44%
amount of component as percentage with respect to the amount at the initial time (Example 16: 10 mL of the final solution (cefoperazone sodium, tazobactam sodium, etimicin sulfate, citrate) + gentamicin sulfate 16 mg, Time 1 h): 104.6%
amount of component as percentage with respect to the amount at the initial time (Example 16: 10 mL of the final solution (cefoperazone sodium, tazobactam sodium, etimicin sulfate, citrate) + gentamicin sulfate 16 mg, Time 2 h): 102.4%
amount of component as percentage with respect to the amount at the initial time (Example 16: 10 mL of the final solution (cefoperazone sodium, tazobactam sodium, etimicin sulfate, citrate) + gentamicin sulfate 16 mg, Time 4 h): 97.95%
amount of component as percentage with respect to the amount at the initial time (Example 16: 10 mL of the final solution (cefoperazone sodium, tazobactam sodium, etimicin sulfate, citrate) + gentamicin sulfate 16 mg, Time 6 h): 98.90%
amount of component as percentage with respect to the amount at the initial time (Example 16: 10 mL of the final solution (cefoperazone sodium, tazobactam sodium, etimicin sulfate, citrate) + gentamicin sulfate 16 mg, Time 8 h): 102.9%
amount of component as percentage with respect to the amount at the initial time (Example 16: freeze-dried cefoperazone sodium 4 g, tazobactam sodium 1 g, citrate pH 6.75, 7 days 0° C., in 100 mL water, 10 mL + etimicin sulfate 20 mg, room temperature, Time 0 h): 102.9%
amount of component as percentage with respect to the amount at the initial time (Example 16: freeze-dried cefoperazone sodium 4 g, tazobactam sodium 1 g, citrate pH 6.75, 7 days 0° C., in 100 mL water, 10 mL + etimicin sulfate 20 mg, room temperature, Time 1 h): 108.6%
amount of component as percentage with respect to the amount at the initial time (Example 16: freeze-dried cefoperazone sodium 4 g, tazobactam sodium 1 g, citrate pH 6.75, 7 days 0° C., in 100 mL water, 10 mL + etimicin sulfate 20 mg, room temperature, Time 2 h): 104.6%
amount of component as percentage with respect to the amount at the initial time (Example 16: freeze-dried cefoperazone sodium 4 g, tazobactam sodium 1 g, citrate pH 6.75, 7 days 0° C., in 100 mL water, 10 mL + etimicin sulfate 20 mg, room temperature, Time 4 h): 99.50%
amount of component as percentage with respect to the amount at the initial time (Example 16: freeze-dried cefoperazone sodium 4 g, tazobactam sodium 1 g, citrate pH 6.75, 7 days 0° C., in 100 mL water, 10 mL + etimicin sulfate 20 mg, room temperature, Time 6 h): 98.91%
amount of component as percentage with respect to the amount at the initial time (Example 16: freeze-dried cefoperazone sodium 4 g, tazobactam sodium 1 g, citrate pH 6.75, 7 days 0° C., in 100 mL water, 10 mL + etimicin sulfate 20 mg, room temperature, Time 8 h): 103.4%
amount of component as percentage with respect to the amount at the initial time (Example 17: freeze-dried cefoperazone sodium 4 g, sulbactam sodium 1 g, citrate pH 6.75, 7 days 0° C., in 100 mL water, 10 mL + amikacin sulfate 40 mg, room temperature, Time 0 h): 92.30%
amount of component as percentage with respect to the amount at the initial time (Example 17: freeze-dried cefoperazone sodium 4 g, sulbactam sodium 1 g, citrate pH 6.75, 7 days 0° C., in 100 mL water, 10 mL + amikacin sulfate 40 mg, room temperature, Time 1 h): 94.80%
amount of component as percentage with respect to the amount at the initial time (Example 17: freeze-dried cefoperazone sodium 4 g, sulbactam sodium 1 g, citrate pH 6.75, 7 days 0° C., in 100 mL water, 10 mL + amikacin sulfate 40 mg, room temperature, Time 2 h): 94.06%
amount of component as percentage with respect to the amount at the initial time (Example 17: freeze-dried cefoperazone sodium 4 g, sulbactam sodium 1 g, citrate pH 6.75, 7 days 0° C., in 100 mL water, 10 mL + amikacin sulfate 40 mg, room temperature, Time 4 h): 94.12%
amount of component as percentage with respect to the amount at the initial time (Example 17: freeze-dried cefoperazone sodium 4 g, sulbactam sodium 1 g, citrate pH 6.75, 7 days 0° C., in 100 mL water, 10 mL + amikacin sulfate 40 mg, room temperature, Time 6 h): 93.15%
amount of component as percentage with respect to the amount at the initial time (Example 17: freeze-dried cefoperazone sodium 4 g, sulbactam sodium 1 g, citrate pH 6.75, 7 days 0° C., in 100 mL water, 10 mL + amikacin sulfate 40 mg, room temperature, Time 8 h): 94.50%
SMILES: CCN1CCN(C(=O)N[C@@H](C(=O)N[C@@H]2C(=O)N3C(C(=O)O)=C(CSc4nnnn4C)CS[C@H]23)c2ccc(O)cc2)C(=O)C1=O [Cefoperazone sodium]
